In patent EP0385106A1, “Sustained release bolus effective for the prolonged prevention, treatment or control of nematode, acarid and endo- and ectoparasitic infestations of ruminants” (AMERICAN CYANAMID COMPANY, priority 1989, dated 1990):

How the values were obtained:
Assay type in all cases: in vivo
[1] = system: nematode eggs; assay: Nematode eggs per gram of feces in pastured cattle (Example 14)
Description: (§1) One half boluses (weight 25.5 to 27.0 g) and are administered to cattle on pasture. […] In this test pastured animals are randomly divided into groups of 5 animals per group and ear-tagged. The feces of all animals is examined prior to the tests in order to determine the average number of nematode eggs per gram of feces of the test animals. […] The test is begun with all animals receiving one half of a bolus weighing about 25 to 27 grams. […] The animals are then placed in individual paddocks and examined at intervals during the holding period up to 120 days. […]

[2] = system: Haemonchus; assay: Per cent control of nematodes in cattle (Example 14); conditions: dewormed 57 days earlier
Description: as §1

[3] = system: Ostertagia; assay: as above; conditions: dewormed 57 days earlier
Description: as §1

[4] = system: Oesophlogostonum; assay: as above; conditions: dewormed 57 days earlier
Description: as §1

[5] = system: Cooperia; assay: as above; conditions: dewormed 57 days earlier
Description: as §1

[6] = Weight gains of cattle (Example 14)
Description: as §1

c1ccc([C@H]2CN3CCSC3=N2)cc1 [Levamisole]
Average number of nematode eggs per gram of feces ([1]; Day 0 (before treatment)): (2850)
Average number of nematode eggs per gram of feces ([1]; Day 7): 5
per cent in parentheses beside the egg count (reduction of nematode eggs) ([1]; Day 7): 99.9%
Average number of nematode eggs per gram of feces ([1]; Day 62 (levamisole group re-treated on day 62)): 755
Average number of nematode eggs per gram of feces ([1]; Day 119): 146
Avg. number worms Haemonchus [2]: 2325
Avg. number worms Ostertagia [3]: 729
Avg. number worms Oesophlogostonum [4]: 117
Avg. number worms Cooperia [5]: 5937
Average weight gains (Kg) from Day 0 ([6]; Day 7): 7 kg
Average weight gains (Kg) from Day 0 ([6]; Day 62): 0 kg
Average weight gains (Kg) from Day 0 ([6]; Day 110): 21 kg
